Measured values published in PMC8151276, “An Integrated Approach toward NanoBRET Tracers for Analysis of GPCR Ligand Engagement” (Molecules, 2021).

What was measured:
Type in all cases: binding
[1] = molecular target: T1, GRM8 (Homo sapiens, UniProt O00222); experiment: NanoBRET screen HiBiT-GRM8 in HEK293
T1 construct: purchased Promega (in-house HiBiT-GPCR construct library, NanoBRET)
Description: (§1) Each tracer candidate was screened across the entire library of HiBiT-GPCR constructs using NanoBRET as the detection modality. As depicted in Figure 4A, the specificity of interactions was evaluated through decrease in BRET due to competitive displacement of a bound tracer by excess parental compound. Each tracer was analyzed for binding to each HiBiT-GPCR fusion in the absence and in the presence of competing parental compound. Briefly, HEK293 cells were transfected with HiBiT-GPCR constructs diluted into promoterless DNA to reduce expression and maximize translocation to the cell surface. Each tracer candidate was then screened at concentrations of 1 μM and 0.1 μM across cells expressing these fusions. Cells were treated for 1.5 h with tracer either alone or in the presence of 20 μM competing parental compound (i.e., control). BRET was measured upon addition of purified LgBiT and subsequent complementation with HiBiT genetically fused to a GPCR. The specificity of interactions was assessed through a decrease in BRET signal due to competitive displacement of the bound tracer. To further gauge the robustness of these interactions, the fold response over the control (i.e., BRETtracer/BRETcontrol) was calculated. We chose a 1.5-fold response, which translates to ≥7-fold signal over noise as the minimal threshold required to score an interaction as positive. […]. Below we highlight the screening results obtained for our exemplary fluorescent tracers based on Clozapine, Amitriptyline and AZD1283.
(§2) HiBiT-GPCR DNA constructs were diluted in 10 mM Tris pH 8 to a final concentration of 0.01 μg/μL, arrayed in 96-well plates and stored at −20 °C. For transfection, HEK293 cells were suspended in Opti-MEM (without phenol red) supplemented with 2% fetal bovine serum (Seradigm) and 100 units/mL penicillin–streptomycin (Gibco) at a final concentration of 220,000 cells/mL and dispensed into white 96-well plates at 90 μL/well. Subsequent transfections and screens were carried using an Agilent Bravo Automated Liquid Handling Platform. First, the 96-well HiBiT DNA arrays were diluted 25-fold in Opti-MEM (without serum or phenol red) to a final concentration of 0.0004 μg/μL and 20 μL of the diluted DNAs were transferred into new 96-well plates. Next, promoterless carrier DNA (1 μg/μL) was diluted 25-fold (0.04 μg/μL) and then dispensed into the diluted arrays at 20 μL/well. Following brief mixing, Viafect transfection reagent (Promega) diluted 16-fold into Opti-MEM was dispensed into the plates at 40 μL/well. After mixing by pipetting, plates were incubated for 10 min on the pipetting station deck. The DNA-transfection reagent complexes were then added to plates containing cells. To facilitate the screen, 10 μL of DNA-transfection reagent complexes were added in duplicates to the top 4 and bottom 4 rows, resulting in two identical 48-well arrays per plate. Plates with transfected cells were incubated for 18–20 h at 37 °C/5% CO2. A screen of each tracer across the entire library using two different concentrations requires duplicate plates of transfected cells. Depending on the number of tracers being screened, transfections can be scaled up using the same ratios. The next day, for each tracer, four 20× screening solutions in tracer dilution buffer (Promega) were prepared: two duplicates at final concentration of 20 μM and two duplicates at a final concentration of 2 μM. A competing unmodified compound was added to one of each duplicate at a final concentration of 400 μM. The four resulting solutions were diluted 4-fold in Opti-MEM without serum or phenol red to generate 5× solutions (5 µM and 0.5 µM tracer +/− 100 μM competing compound). To screen the library, a BioTek MultiFlo FX liquid dispenser was used to dispense 22.5 µL of tracer solution to the top 4 rows and 22.5 µL tracer + competing compound solution to the 4 bottom rows. Plates were briefly mixed on an orbital shaker and incubated for 1.5 h at room temperature. […]

[2] = molecular target: T2, ACKR3 (Homo sapiens, UniProt P25106); experiment: NanoBRET screen HiBiT-ACKR3 in HEK293
T2 construct: purchased Promega (in-house HiBiT-GPCR construct library, NanoBRET)
T2 sequence (P25106 whole entry): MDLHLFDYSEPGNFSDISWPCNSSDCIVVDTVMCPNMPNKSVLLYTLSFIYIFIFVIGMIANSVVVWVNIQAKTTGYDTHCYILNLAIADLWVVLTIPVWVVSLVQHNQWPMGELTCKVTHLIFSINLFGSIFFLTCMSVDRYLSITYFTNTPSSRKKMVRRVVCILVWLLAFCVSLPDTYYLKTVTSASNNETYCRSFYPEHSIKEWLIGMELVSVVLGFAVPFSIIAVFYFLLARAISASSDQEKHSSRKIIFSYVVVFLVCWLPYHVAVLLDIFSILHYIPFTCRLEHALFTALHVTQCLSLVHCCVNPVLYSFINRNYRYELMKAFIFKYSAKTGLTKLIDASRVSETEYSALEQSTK
Description: as §1, §2

[3] = molecular target: T3, LHCGR (Homo sapiens, UniProt P22888); experiment: NanoBRET screen HiBiT-LHCGR in HEK293
T3 construct: purchased Promega (in-house HiBiT-GPCR construct library, NanoBRET)
T3 sequence (P22888 27-699): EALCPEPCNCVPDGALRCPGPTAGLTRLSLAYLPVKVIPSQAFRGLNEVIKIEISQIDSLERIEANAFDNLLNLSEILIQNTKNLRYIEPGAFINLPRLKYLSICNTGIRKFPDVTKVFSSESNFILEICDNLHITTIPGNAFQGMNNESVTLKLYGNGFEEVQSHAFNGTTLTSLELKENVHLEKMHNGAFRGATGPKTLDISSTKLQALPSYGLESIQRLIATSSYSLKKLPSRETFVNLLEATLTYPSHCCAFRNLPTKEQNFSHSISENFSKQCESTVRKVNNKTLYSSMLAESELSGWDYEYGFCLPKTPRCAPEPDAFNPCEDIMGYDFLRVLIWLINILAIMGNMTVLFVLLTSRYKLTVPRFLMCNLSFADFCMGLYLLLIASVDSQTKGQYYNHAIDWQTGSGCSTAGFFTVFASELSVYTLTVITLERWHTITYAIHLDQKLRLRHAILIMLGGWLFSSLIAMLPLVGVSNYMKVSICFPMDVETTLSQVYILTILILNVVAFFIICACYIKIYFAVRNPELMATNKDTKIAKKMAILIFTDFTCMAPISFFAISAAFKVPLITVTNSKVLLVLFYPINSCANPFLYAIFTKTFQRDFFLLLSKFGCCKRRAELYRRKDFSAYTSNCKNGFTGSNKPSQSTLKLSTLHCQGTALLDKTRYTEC
Description: as §1, §2

T1 sequence (O00222 34-908): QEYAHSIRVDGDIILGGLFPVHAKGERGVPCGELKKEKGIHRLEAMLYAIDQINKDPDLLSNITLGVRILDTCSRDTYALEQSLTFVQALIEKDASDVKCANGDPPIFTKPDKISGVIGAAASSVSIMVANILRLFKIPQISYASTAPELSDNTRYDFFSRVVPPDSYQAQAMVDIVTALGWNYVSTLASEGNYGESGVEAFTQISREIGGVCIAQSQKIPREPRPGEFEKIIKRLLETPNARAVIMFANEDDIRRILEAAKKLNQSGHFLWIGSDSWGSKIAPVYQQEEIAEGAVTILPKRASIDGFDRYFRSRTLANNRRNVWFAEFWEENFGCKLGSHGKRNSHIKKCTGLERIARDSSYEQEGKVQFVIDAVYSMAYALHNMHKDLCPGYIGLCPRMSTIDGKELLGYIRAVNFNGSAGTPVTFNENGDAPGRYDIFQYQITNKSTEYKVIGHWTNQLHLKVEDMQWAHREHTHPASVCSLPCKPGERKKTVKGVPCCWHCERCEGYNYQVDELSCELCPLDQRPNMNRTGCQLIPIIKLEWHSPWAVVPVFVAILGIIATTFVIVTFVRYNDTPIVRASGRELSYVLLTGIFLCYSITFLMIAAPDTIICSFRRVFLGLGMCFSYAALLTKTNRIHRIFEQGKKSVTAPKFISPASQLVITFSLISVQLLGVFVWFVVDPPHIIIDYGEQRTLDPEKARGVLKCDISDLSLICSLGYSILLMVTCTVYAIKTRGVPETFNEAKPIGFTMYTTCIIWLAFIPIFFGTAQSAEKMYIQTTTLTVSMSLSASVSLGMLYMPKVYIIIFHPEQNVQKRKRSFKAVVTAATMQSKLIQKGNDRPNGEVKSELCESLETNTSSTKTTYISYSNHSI

Row | SMILES | NanoBRET Fold Response ([1]; GRM8, tracer 0.1μM) | NanoBRET Fold Response ([1]; GRM8, tracer 1μM) | NanoBRET Fold Response ([2]; ACKR3, tracer 0.1μM) | NanoBRET Fold Response ([2]; ACKR3, tracer 1μM) | NanoBRET Fold Response ([3]; LHCGR, tracer 0.1μM) | NanoBRET Fold Response ([3]; LHCGR, tracer 1μM) | also measured
1 | Cc1nc2n(c(=O)c1CCN1CCC(c3noc4cc(F)ccc34)CC1)CCCC2OC(=O)NCCOCCOCCOCCOCCNC(=O)CCc1ccc2n1[B-](F)(F)[N+]1=C(c3ccc[nH]3)C=CC1=C2 (stereo not drawn) [Risperidone-2-NB590] | 1.00 | 1.04 | 1.07 | 1.36 | 0.99 | 1.04 | –
2 | CCOC(=O)c1cc(C#N)c(N2CCC(C(=O)NS(=O)(=O)Cc3ccccc3/C=C/C(=O)NCCNC(=O)CCc3ccc4n3[B-](F)(F)[N+]3=C(c5ccc[nH]5)C=CC3=C4)CC2)nc1C [AZD1283-1-NB590] | – | – | – | – | – | – | NanoBRET Fold Response ([1]; GRM8, 0.1μM): 0.99; NanoBRET Fold Response ([1]; GRM8, 1μM): 1.01; NanoBRET Fold Response ([2]; ACKR3, 0.1μM): 1.06; NanoBRET Fold Response ([2]; ACKR3, 1μM): 1.19; NanoBRET Fold Response ([3]; LHCGR, 0.1μM): 1.00; NanoBRET Fold Response ([3]; LHCGR, 1μM): 1.02
3 | Cc1cc2c(s1)Nc1ccccc1N=C2N1CCN(CCCNC(=O)CCOCCOCCOCCOCCNC(=O)CCc2ccc3n2[B-](F)(F)[N+]2=C(c4ccc[nH]4)C=CC2=C3)CC1 [Olanzapine-a-2-NB590] | 0.97 | 1.04 | 0.94 | 0.83 | 1.00 | 1.01 | –
4 | COc1ccccc1N1CCN(CCCCN2C(=O)c3ccc(CNC(=O)CCOCCNC(=O)c4ccc(CNC(=O)CCc5ccc6n5[B-](F)(F)[N+]5=C(c7ccc[nH]7)C=CC5=C6)cc4)cc3C2=O)CC1 [NAN-190-3-NB590] | 1.21 | 0.96 | 0.77 | 1.10 | 0.98 | 1.08 | –
5 | CC(C)N(CC[C@H](c1ccccc1)c1cc(CCNC(=O)CCOCCOCCOCCOCCNC(=O)CCc2ccc3n2[B-](F)(F)[N+]2=C(c4ccc[nH]4)C=CC2=C3)ccc1O)C(C)C [Tolterodine-2-NB590] | 1.00 | 1.31 | 0.96 | 1.00 | 1.08 | 1.02 | –
6 | CN(C)CCC=C1c2ccccc2CCc2ccc(C(=O)NCCNC(=O)CCOCCOCCOCCOCCNC(=O)CCc3ccc4n3[B-](F)(F)[N+]3=C(c5ccc[nH]5)C=CC3=C4)cc21 [Amitriptyline-b-2-NB590] | 1.01 | 0.99 | – | – | 1.05 | 1.00 | NanoBRET Fold Response ([2]; tracer at 0.1μM, listed as amitriptyline-b-2-NB590): 1.17; NanoBRET Fold Response ([2]; tracer at 1μM, listed as amitriptyline-b-2-NB590): 1.07
7 | O=C(CCOCCOCCOCCOCCNC(=O)CCc1ccc2n1[B-](F)(F)[N+]1=C(c3ccc[nH]3)C=CC1=C2)NCCCN1CCN(C2=Nc3ccccc3Oc3ccc(Cl)cc32)CC1 [Loxapine-a-2-NB590] | 1.01 | 1.07 | 0.30 | 1.02 | 0.97 | 1.15 | –
8 | CN(C)CCC=C1c2ccccc2CCc2ccc(C(=O)NCCNC(=O)CCOCCOCCOCCOCCNC(=O)CCc3ccc4n3[B-](F)(F)[N+]3=C(c5ccc[nH]5)C=CC3=C4)cc21 [Amitriptyline-a-2-NB590] | – | – | – | – | – | – | NanoBRET Fold Response ([2]; tracer at 0.1μM): 1.15; NanoBRET Fold Response ([2]; tracer at 1μM): 0.99
9 | O=C(CCc1ccc2n1[B-](F)(F)[N+]1=C(c3ccc[nH]3)C=CC1=C2)NCCOCCOCCNC(=O)OCCOCCN1CCN(C2=Nc3ccccc3Sc3ccccc32)CC1 [Quetiapine-a-2-NB590] | 0.98 | 1.00 | 0.96 | 0.96 | 1.01 | 0.79 | –
10 | COc1ccccc1N1CCN(CCCCN2C(=O)c3ccc(CNC(=O)CCOCCOCCOCCOCCNC(=O)CCc4ccc5n4[B-](F)(F)[N+]4=C(c6ccc[nH]6)C=CC4=C5)cc3C2=O)CC1 [NAN-190-2-NB590] | 1.02 | – | 1.09 | – | 0.98 | 1.04 | –
11 | CN1CCN(C2=Nc3cc(Cl)ccc3N(CC(=O)NCCOCCOCCOCCOCCNC(=O)CCc3ccc4n3[B-](F)(F)[N+]3=C(c5ccc[nH]5)C=CC3=C4)c3ccccc32)CC1 [Clozapine-c-2-NB590] | – | – | – | – | – | – | NanoBRET Fold Response ([1]; GRM8, 0.1μM tracer): 0.97; NanoBRET Fold Response ([1]; GRM8, 1μM tracer): 1.07; NanoBRET Fold Response ([2]; ACKR3, 1μM tracer): 0.92; NanoBRET Fold Response ([3]; LHCGR, 0.1μM tracer): 1.05; NanoBRET Fold Response ([3]; LHCGR, 1μM tracer): 1.07
12 | COc1ccc2[nH]c(-c3ccc(CNC(=O)CCOCCOCCOCCOCCNC(=O)CCc4ccc5n4[B-](F)(F)[N+]4=C(c6ccc[nH]6)C=CC4=C5)cc3)c(CCNC(C)=O)c2n1 [AzomelatoninICO9-2-NB590] | – | – | – | – | – | – | NanoBRET Fold Response ([1]; 0.1μM tracer): 0.98; NanoBRET Fold Response ([1]; 1μM tracer): 0.98; NanoBRET Fold Response ([2]; 0.1μM tracer): 1.40; NanoBRET Fold Response ([2]; 1μM tracer): 0.83; NanoBRET Fold Response ([3]; 0.1μM tracer): 1.01; NanoBRET Fold Response ([3]; 1μM tracer): 0.88
13 | O=C(CCOCCOCCOCCOCCNC(=O)CCc1ccc2n1[B-](F)(F)[N+]1=C(c3ccc[nH]3)C=CC1=C2)NCCCN1CCN(C2=Nc3cc(Cl)ccc3Nc3ccccc32)CC1 [Clozapine-a-2-NB590] | – | – | – | – | – | – | NanoBRET Fold Response ([1]; GRM8, 0.1μM tracer): 1.01; NanoBRET Fold Response ([1]; GRM8, 1μM tracer): 1.00; NanoBRET Fold Response ([2]; ACKR3, 0.1μM tracer): 1.05; NanoBRET Fold Response ([2]; ACKR3, 1μM tracer): 1.06; NanoBRET Fold Response ([3]; LHCGR, 0.1μM tracer): 0.93; NanoBRET Fold Response ([3]; LHCGR, 1μM tracer): 1.05
14 | CCCn1c(=O)c2[nH]c(-c3ccc(OCC(=O)NCCNC(=O)CCOCCNC(=O)c4ccc(CNC(=O)CCc5ccc6n5[B-](F)(F)[N+]5=C(c7ccc[nH]7)C=CC5=C6)cc4)cc3)nc2n(CCC)c1=O [XAC-3-NB590] | 0.99 | 1.04 | 1.02 | 1.49 | 1.01 | 1.00 | –
15 | O=C(CCc1ccc2n1[B-](F)(F)[N+]1=C(c3ccc[nH]3)C=CC1=C2)NCc1ccc(C(=O)NCCOCCOCCNCC(O)COc2cccc3ccccc23)cc1 (stereo not drawn) [Propranolol-3-NB590] | – | – | – | – | – | – | NanoBRET Fold Response ([1]; GRM8, 0.1μM): 0.99; NanoBRET Fold Response ([1]; GRM8, 1μM): 1.00; NanoBRET Fold Response ([2]; ACKR3, 0.1μM): 1.04; NanoBRET Fold Response ([2]; ACKR3, 1μM): 1.08; NanoBRET Fold Response ([3]; LHCGR, 0.1μM): 1.04; NanoBRET Fold Response ([3]; LHCGR, 1μM): 1.00
16 | O=C(CCc1ccc2n1[B-](F)(F)[N+]1=C(c3ccc[nH]3)C=CC1=C2)NCc1ccc(C(=O)NCCOCCC(=O)N[C@@H]2CC[C@@]3(O)[C@H]4Cc5ccc(O)c6c5[C@@]3(CCN4CC3CC3)[C@H]2O6)cc1 [Naltrexone-3-NB590] | 1.07 | 0.93 | 1.11 | 1.07 | 0.89 | 1.12 | –
17 | CN(CCC=C1c2ccccc2CCc2ccccc21)C(=O)CCOCCOCCOCCOCCNC(=O)CCc1ccc2n1[B-](F)(F)[N+]1=C(c3ccc[nH]3)C=CC1=C2 [Amitriptyline-e-2-NB590] | – | – | – | – | – | – | NanoBRET Fold Response ([2]; tracer at 1μM): 0.94
18 | N#CN=C(NCCCOc1cccc(CN2CCCCC2)c1)NCCNC(=O)CCOCCOCCOCCOCCNC(=O)CCc1ccc2n1[B-](F)(F)[N+]1=C(c3ccc[nH]3)C=CC1=C2 [Aminopotentidine-2-NB590] | 1.01 | 0.99 | 0.99 | 1.08 | 1.03 | 1.00 | –
